This note sets out measurements from US20180065968A1, “NEW SUBSTITUTED TRIAZOLOPYRIMIDINES AS ANTI-MALARIAL AGENTS” (BOARD OF REGENTS OF THE UNIVERSITY OF TEXAS SYSTEM, priority 2015, published 2018).

Data set [1] relates to P. vivax clinical isolates. The data set can be described thus: Ex vivo schizont maturation assay, clinical isolates. The format is cell-based. The note with it: Plasmodium vivax, read-out: P. vivax clinical isolates IC50. The procedure:
(§1) To assess comparative activity between P. falciparum and P. vivax strains compounds were tested in an ex vivo parasite assay using Plasmodium isolates from patients who visited clinics in Timika (Papua, Indonesia). Parasites in this region are resistant to standard anti-malarials such as chloroquine. P. vivax can not be cultivated in vitro so the ex vivo assay is the only method to evaluate drug sensitivity. Patients with parasitemia between 2000 and 80,000 ul^−1 were eligible for recruitment into the study. Blood was collected by venipuncture, host white blood cells were removed and packed infected red blood cells were used for the ex vivo studies. Drug susceptibility was measured as previously described (Russell et al., 2008, Antimicrobial Agents Chemother., 52, 1040-1045; Marfurt et al., 2011, Antimicrobial Agents Chemother., 55, 961-966; Marfurt et al., 2011, Antimicrobial Agents Chemother., 55, 4461-4464). Briefly two hundred μl of a 2% hematocrit blood mixture, consisting of RPMI 1640 medium plus 10% AB+ human serum (P. falciparum) or McCoy's 5A medium plus 20% AB+ human serum (P. vivax) was added to each well of pre-dosed drug plates containing serial 2-fold dilutions of the anti-malarial compound. A candle jar was used to mature parasites at 37° C. for 35-56 hrs. […] Thick blood films made from each well were stained with 5% Giemsa for 30 min and examined microscopically. The number of schizonts per 200 asexual stage parasites was determined and normalized to the control well. Data were analyzed by nonlinear regression (WinNonLn 4.1) to determine the IC50 using the inhibitory sigmoid Emax model.
(§2) Drug plate quality was assured by running schizont maturation assays (two independent experiments) with the chloroquine-resistant strain K1 and the chloroquine-sensitive strain FC27. For microscopy slide reading QC, two randomly selected drugs per isolate were read by a second microscopist. […] If necessary, discrepant results were resolved by a third reading by an expert microscopist.

Data set [2] relates to P. falciparum FC27 lab lines. The experiment in a line: Ex vivo schizont maturation assay, lab line. The format is cell-based. The note with it: Plasmodium falciparum, read-out: P. falciparum FC27 lab lines IC50. How it is done:
as §1, §2

Data set [3] deals with P. falciparum clinical isolates. The experiment in a line: Ex vivo schizont maturation assay, clinical isolates. The settings on record: Plasmodium falciparum, read-out: P. falciparum clinical isolates IC50. The format is cell-based. The procedure: as §1, §2
Data set [4] deals with P. falciparum Pf3D70087/N9. The data set can be described thus: SCID mouse P. falciparum in vivo efficacy model. More on the design: species or system P. falciparum in NOD-scid IL-2Rγnull (NSG) mice. The note with it: oral, starting day 3 post infection, NSG mice engrafted with human erythrocytes. How it is done:
Briefly, NOD-scid IL-2Rγnull (NSG) mice (Jackson Laboratory, USA) (23-36 g) engrafted with human erythrocytes as described were infected with 20×10^6 P. falciparum Pf3D70087/N9) generated in GlaxoSmithkline Tres Cantos (Spain) by intravenous injection. Compounds were administered orally in vehicle (saline solution for Chloroquine; 0.5% w/v sodium carboxymethylcellulose, 0.5% v/v benzyl alcohol, 0.4% v/v Tween 80 in water for triazolopyrimidine analogs). Compounds were administered at target doses ranging from 0.5 to 75 mg/kg (free base equivalent) starting on day 3 post infection. Formulation concentrations were measured to obtain the actual doses administered. Parasitemia was monitored by flow cytometry and the effective dose (ED90) was calculated as described in Jimenez-Diaz, 2009, Antimicrobial agents and chemotherapy, 53, 4533-4536.

Data set [5] relates to P. falciparum 3D7. The data set can be described thus: P. falciparum 3D7 growth inhibition assay (SYBR green). The format is cell-based. The settings on record: Plasmodium falciparum, 72 h incubation, 50% growth inhibition, read-out: Pf 3D7 EC50. How it is done:
The ability of triazolopyrimidine derivatives according to the invention to kill P. falciparum parasites and/or to inhibit its proliferation is assayed through their ability to inhibit Plasmodium falciparum growth. The growth inhibition assay is as follows: P. falciparum 3D7 cells were grown in Gibco-Invitrogen RPMI-1640 supplemented with 2% (w/v) red blood cells (RBCs) and either 20% human type A+ plasma (Desjardins et al., 1979, Antimicrob Agents Chemother. 16, 710-718) or with Gibco-Invitrogen 0.5% Albumax I (Coteron et al., 2011, J. Med. Chem., 54, 5540-5561). Serial dilutions of compound stocks were prepared in 100% DMSO at 200× the final concentration, followed by generation of 20× stocks in media. Cell growth was monitored by the SYBR green method as described (Deng, et al., 2014. J. Med. Chem., 57, 5381-539). Parasites (0.19 ml of 0.5% parasitemia, 0.5% HCT) were plated into 96-well microtiter plates containing 10 μL compound or DMSO control (final DMSO concentration of 0.5%). Non-parasitized RBCs (0.5% HCT) were used as a control to determine background fluorescence. After 72 h of incubation parasitized RBCs were quantitated by the SYBR Green method. 2× SYBR Green I solution (20 μL) in 1× PBS was mixed with 20 μL parasites in 96-well plates, incubated for 20 min, and after which 160 μL of 1× PBS was added. Fluorescence was detected using a BD Biosciences Acurri C6 flow cytometer and events recorded within gates that encompassed all asexual growth stages of the P. falciparum intraerythrocytic life cycle. A minimum 50,000 total events were recorded per well. Background events determined from non-parasitized RBC controls were subtracted from final counts.

For data set [6], the target named is T1, pfDHODH (Plasmodium falciparum, UniProt Q08210).
T1 sequence (Q08210 24-569): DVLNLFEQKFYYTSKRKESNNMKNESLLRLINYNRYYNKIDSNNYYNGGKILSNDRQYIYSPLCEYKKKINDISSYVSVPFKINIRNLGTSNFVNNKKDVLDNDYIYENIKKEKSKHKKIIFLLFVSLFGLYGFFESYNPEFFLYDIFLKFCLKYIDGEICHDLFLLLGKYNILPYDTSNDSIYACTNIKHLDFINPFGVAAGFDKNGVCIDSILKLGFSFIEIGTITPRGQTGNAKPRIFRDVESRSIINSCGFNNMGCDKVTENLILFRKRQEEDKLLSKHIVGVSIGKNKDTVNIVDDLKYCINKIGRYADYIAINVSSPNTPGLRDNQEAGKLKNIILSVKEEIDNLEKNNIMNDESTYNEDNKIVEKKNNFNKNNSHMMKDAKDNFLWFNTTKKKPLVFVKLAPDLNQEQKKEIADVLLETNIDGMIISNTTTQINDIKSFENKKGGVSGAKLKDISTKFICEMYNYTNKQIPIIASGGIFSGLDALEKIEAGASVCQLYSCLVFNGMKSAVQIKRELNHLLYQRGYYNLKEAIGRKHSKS
The experiment in a line: biochemical. The procedure:
(§3) The compounds of the invention were also assessed for inhibitory activity against recombinant DHODH from the indicated species. Recombinant enzymes were produced and purified from E. coli as His6 fusion proteins and purified by Ni^+2-agarose chromatography as described.
(§4) Data were collected on a Synergy H1 hybrid plate reader in 96 well plate format at 28° C., using a final assay volume of 200 μl. Rate data (v) were converted to μmoles/min using the molar extinction coefficient for DCIP. Compounds were prepared in stock solutions of DMSO. An initial 100 mM stock was generated and this was used to prepare a 3 fold dilution series in DMSO. A 1:100 dilution of DMSO stock was made into assay buffer to generate the final concentration in the assay mix.
(§5) Assay Conditions: DHODH (ET=5-10 nM), substrates (0.2 mM L-dihydroorotate and 0.02 mM CoQD), DCIP (0.12 mM) and assay buffer (100 mM HEPES, pH 8.0, 150 mM NaCl, 10% Glycerol, 0.1%Triton) at 20° C. Concentration of compounds of the invention was varied in a 3-fold dilution series (0.01-100 uM). All data were collected in triplicate.
(§6) Fitting was performed in Graph Pad Prism to determine the IC50. Reported error represents the 95% confidence interval of the fit or the standard deviation of the mean.

Data set [7] can be described thus: Aqueous kinetic solubility by nephelometry. The format is physicochemical. The note with it: pH 6.5 phosphate buffer, 1% DMSO; for solubility kinetic: aqueous buffer, kinetic from dmso stock, read-out: Kinetic Solubility pH6.5. The procedure: Aqueous solubility was estimated by nephelometry. Concentrated stock solutions were prepared in DMSO and diluted into either pH 6.5 phosphate buffer or 0.01 M HCl (approximately pH 2.0), with the final DMSO concentration being 1%. Samples were then analyzed by nephelometry to determine the solubility range as described previously (Bevan, et al., 2000, Anal. Chem., 72, 1781-1787).

In data set [8] the target is rat DHODH (Rattus norvegicus, UniProt Q63707). The experiment in a line: Recombinant DHODH inhibition, DCIP dye-based assay. The format is biochemical. The settings on record: fourth value of cell, read-out: h/d/m/r DHODH (r). How it is done:
as §3, §4, §5, §6

Data set [9] has as its target human DHODH (Homo sapiens, UniProt Q02127). The data set can be described thus: Recombinant DHODH inhibition, DCIP dye-based assay. The format is biochemical. The settings on record: first value of cell, read-out: h/d/m/r DHODH (h). The procedure: as §3, §4, §5, §6
Data set [10] has as its target mouse DHODH (Mus musculus, UniProt O35435). The data set can be described thus: Recombinant DHODH inhibition, DCIP dye-based assay. The format is biochemical. The note with it: third value of cell, read-out: h/d/m/r DHODH (m). The procedure:
as §3, §4, §5, §6

Data set [11] addresses dog DHODH (Canis lupus familiaris, UniProt A0A8I3MWX2). The experiment in a line: Recombinant DHODH inhibition, DCIP dye-based assay. The format is biochemical. How it is done: as §3, §4, §5, §6
The mark [12] stands for this setting: recombinant enzyme, DCIP assay, IC50, read-out: PfDHODH.
Setting [13] is: dog DHODH, second value of cell, read-out: h/d/m/r DHODH (d).
Where [14] appears, read: ex vivo schizont maturation, 35-56 hrs, isolates from Timika (Papua, Indonesia).

Values after ≈ are worked out from the molar mass of the structure shown. Like-named read-outs stand apart in the source and are kept apart here.

Sequence of mouse DHODH (O35435 whole entry): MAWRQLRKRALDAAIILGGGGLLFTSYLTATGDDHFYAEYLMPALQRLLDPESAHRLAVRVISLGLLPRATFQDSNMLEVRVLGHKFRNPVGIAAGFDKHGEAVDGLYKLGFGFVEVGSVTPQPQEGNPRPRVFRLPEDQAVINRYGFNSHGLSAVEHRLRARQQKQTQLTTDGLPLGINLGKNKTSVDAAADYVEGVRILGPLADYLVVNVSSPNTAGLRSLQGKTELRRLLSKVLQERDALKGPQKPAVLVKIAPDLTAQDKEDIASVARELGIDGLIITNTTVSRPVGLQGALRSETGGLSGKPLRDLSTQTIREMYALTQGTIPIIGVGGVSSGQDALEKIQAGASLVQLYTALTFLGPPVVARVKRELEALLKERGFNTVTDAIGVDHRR
Sequence of rat DHODH (Q63707 whole entry): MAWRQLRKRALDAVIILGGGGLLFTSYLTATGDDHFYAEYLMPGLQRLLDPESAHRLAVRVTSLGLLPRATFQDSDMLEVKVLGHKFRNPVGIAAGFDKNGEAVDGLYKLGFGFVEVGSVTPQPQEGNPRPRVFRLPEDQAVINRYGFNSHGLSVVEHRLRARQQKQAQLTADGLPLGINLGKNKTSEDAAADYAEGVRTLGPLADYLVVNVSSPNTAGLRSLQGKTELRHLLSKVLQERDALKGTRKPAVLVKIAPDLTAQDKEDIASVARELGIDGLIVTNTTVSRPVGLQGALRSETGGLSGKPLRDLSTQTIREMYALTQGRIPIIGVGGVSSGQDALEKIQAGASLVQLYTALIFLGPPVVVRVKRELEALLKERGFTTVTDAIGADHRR
Sequence of human DHODH (Q02127 whole entry): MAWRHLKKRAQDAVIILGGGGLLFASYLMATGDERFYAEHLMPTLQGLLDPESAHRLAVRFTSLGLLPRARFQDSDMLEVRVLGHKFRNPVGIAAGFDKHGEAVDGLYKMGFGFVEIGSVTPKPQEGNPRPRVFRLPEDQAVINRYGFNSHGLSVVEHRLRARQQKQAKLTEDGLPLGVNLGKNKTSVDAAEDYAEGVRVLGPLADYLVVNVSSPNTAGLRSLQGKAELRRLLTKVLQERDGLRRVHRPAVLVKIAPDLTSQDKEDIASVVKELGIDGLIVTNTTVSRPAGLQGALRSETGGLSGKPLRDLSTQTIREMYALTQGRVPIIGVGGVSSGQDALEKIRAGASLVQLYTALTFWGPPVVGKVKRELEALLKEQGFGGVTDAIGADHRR
Sequence of dog DHODH (A0A8I3MWX2 1-406): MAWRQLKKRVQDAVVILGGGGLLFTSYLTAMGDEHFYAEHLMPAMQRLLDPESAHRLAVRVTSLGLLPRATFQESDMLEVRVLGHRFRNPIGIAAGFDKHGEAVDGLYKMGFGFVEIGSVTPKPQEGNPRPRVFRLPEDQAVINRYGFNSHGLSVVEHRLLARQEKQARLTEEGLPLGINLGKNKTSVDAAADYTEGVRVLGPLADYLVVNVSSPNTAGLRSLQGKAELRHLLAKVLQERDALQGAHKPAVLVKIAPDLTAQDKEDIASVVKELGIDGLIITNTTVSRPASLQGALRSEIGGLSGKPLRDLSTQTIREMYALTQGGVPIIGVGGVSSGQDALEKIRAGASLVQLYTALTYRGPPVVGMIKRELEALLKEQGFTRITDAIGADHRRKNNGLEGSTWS

In the case of `C[C@H]1[C@H](OC(=O)CCC(=O)O)O[C@@H]2O[C@@]3(C)CC[C@H]4[C@H](C)CC[C@@H]1[C@@]24OO3` [Artesunate], the IC50 was 0.8 to 2.9 nM in data set [1] and 3.6 to 11 nM in data set [2].

Take `CCN(CC)CCCC(C)Nc1ccnc2cc(Cl)ccc12` (stereo not drawn) [Chloroquine]: the IC50 in [1] lay within 43 to 147 nM; in [3] it was 86 to 101 nM; in [2] it was 23 to 32 nM. In addition, in data set [4], the ED90 was 4.3 mg/kg per day.

The EC50 is the concentration needed to bring the measured effect to its halfway point. For orientation: kinetic solubility means the concentration staying in solution when a stock, usually in DMSO, is diluted into the medium. Take `Cc1nc2nc(C(C)(F)F)nn2c(Nc2ccc(C(F)(F)F)nc2)c1F` [Compound (2), 2-(1,1-difluoroethyl)-6-fluoro-5-methyl-N-(6-(trifluoromethyl)pyridin-3-yl)-[1,2,4]triazolo[1,5-a]pyrimidin-7-amine]: the EC50 in data set [5] turned out to be 16 nM. In addition, the IC50 turned out to be 23 nM in data set [6] (setting [12]); 15700 nM in data set [8]; 62000 nM in data set [9]; 20000 nM in [10]; 9200 nM in data set [11] (setting [13]). Moreover, the solubility (kinetic) in [7] is greater than 100 µg/mL.

On to `Cc1cc(Nc2ccc(C(F)(F)F)nc2)n2nc(C(F)(F)F)nc2n1` [Compound (3), 5-methyl-2-(trifluoromethyl)-N-(6-(trifluoromethyl)pyridin-3-yl)-[1,2,4]triazolo[1,5-a]pyrimidin-7-amine], for which, in data set [5], the EC50 amounted to 35 nM. Also, the IC50 in data set [6] (setting [12]) was 41 nM; in [8], 8400 nM; in data set [9] it was greater than 100000 nM; in data set [10] it was 33000 nM; in [11], 39000 nM. For the same molecule, in [7], the kinetic solubility worked out at 50 µg/mL (≈ 138 µM).

Take `CCc1nc(N)nc(N)c1-c1ccc(Cl)cc1` [Pyrimethamine]: the ED90 in data set [4] is reported as 0.9 mg/kg per day.

Consider `Cc1cc(Nc2ccc(C(F)(F)F)nc2)n2nc(C(C)(F)F)nc2n1` [Reference 1], for which the IC50 in [6] (setting [12]) was 50 nM; in data set [8], 4400 nM; in data set [9], 58000 nM; in data set [10] it was 74000 nM; in [11] (setting [13]), 21000 nM. For the same molecule, the “Kinetic Solubility pH6.5” value in [7] is listed as 6.3 μg/ml.

Regarding `Cc1cc(Nc2ccc(C(F)(F)F)cn2)n2nc(C(F)(F)F)nc2n1` [Reference 2], the EC50 in data set [5] was determined as 70 nM. For the same molecule, the IC50 in [6] (setting [12]) was 37 nM; in [9], greater than 50000 nM. For the same molecule, the solubility (kinetic) in data set [7] amounted to 1.6 µg/mL (≈ 4.42 µM).

In the case of `Cc1cc(Nc2ccc(C(F)(F)F)cc2)n2nc(C(C)(F)F)nc2n1` [Reference 3], in data set [5], the EC50 is 8.3 nM. For the same molecule, the IC50 is 31 nM in data set [6]; 7200 nM in data set [8]; greater than 100000 nM in data set [9]; 24000 nM in data set [10]; greater than 100000 nM in [11] (setting [13]). In addition, in data set [7], the solubility (kinetic) turned out to be 50 µg/mL (≈ 140 µM). The same molecule gave an ED90 in data set [4] of 26 mg/kg per day.

With `Cc1cc(Nc2ccc(S(F)(F)(F)(F)F)cc2)n2nc(C(C)(F)F)nc2n1` [Reference 4], the IC50 in [1] (setting [14]) was 920 nM; in [3] (setting [14]), 190 nM; in data set [2] (ex vivo schizont maturation, 35-56 hrs, FC27 chloroquine sensitive lab strain), 177 nM. Also, the 50% effective concentration (EC50) in data set [5] stood at 5 nM. Moreover, in data set [7], the kinetic solubility turned out to be 25 µg/mL (≈ 60.2 µM). The molecule also yielded an ED90 in data set [4] of 8.1 mg/kg per day.
